Test results as given in patent US20250154180A1, “CRK-LIKE (CRKL) ADAPTOR PROTEIN INHIBITORS AND METHODS OF MAKING AND USING THE SAME” (Rutgers, The State University of New Jersey, priority 2022, published 2025).
Where two headings read alike, the source gives them in different places.

What was measured:
AML cell line (MoLM-13) = test: CCK-8 cell viability, MoLM-13; type: cell-based, human; conditions: 1 uM, 5 uM, 10 uM; 48 hours
Protocol: In this example, activities of NC5, Compound III, and the known chemotherapeutic, Cytarabine, were evaluated in the AML cell line (MoLM-13). MoLM-13 cells were collected and seeded at 5,000 cells/well in 96-well plates. The cells were incubated for 24 hours before the addition of either DMSO control or drug at various concentrations. After an additional 48 hours of incubation, 3 μL of CCK-8 was added to every well and incubated at 37° C. for 3 hours. Absorbance was measured at 460 nm in a plate reader. […] The related absorbance was normalized and plotted as line graphs. p-values were determined through two tails student t-tests (*=p<0.5, **=p<0.01, ***=p<0.001).

BXPC3 cells = test: XTT cell viability, BXPC3; type: cell-based; conditions: 24 and 48 hours
Protocol: (§1) FIGS. 8A-8C show results using MDA-MB-231 cells (FIG. 8A) or BXPC3 cells (FIG. 8B), wherein the cells were treated with 5 μM of NC5, Compound III (referred to as “NC5-140-1” in FIGS. 8A-8C), and Compound I (referred to as “NC5-140-2” in FIGS. 8A-8C) for 24-48 hours, wherein the XTT assay was used to determine cell viability. The symbol indicates the significance of NC5 vs. Compounds I and/or III; *p<0.05. Data represent mean±SEM.
(§2) Compound embodiments, compound III and compound I, were also made and evaluated. TNBC cells and PDAC cells were treated with a serial dose of original NC5 and modified NC5 derivatives for 24 and 48 hours. The cell viability will be measured by XTT assay. […] Compound III is referred to as “NC5-140-1” and Compound I is referred to as “NC5-140-2” in FIGS. 8A-8C.

Huh7 cell line = test: CCK-8 cell viability, Huh7; type: cell-based; conditions: 1 uM, 5 uM, 10 uM; 48 hours
Protocol: (§3) In this example, activities of NC5, Compound III, and the known chemotherapeutic, Sorafenib, were evaluated in HepG2, SKHep1, Huh7, and MDA468 cell lines. Cells from each cell line were collected and seeded at 5,000 cells/well in 96-well plates. The cells were incubated for 24 hours before the addition of either DMSO control or drug at various concentrations. After an additional 48 hours of incubation, 3 μL of CCK-8 was added to every well and incubated at 37° C. for 3 hours. Absorbance was measured at 460 nm in a plate reader. Cells from each cell line were treated with NC5 and Compound III at various concentrations (1 uM, 5 uM, 10 uM). The related absorbance was normalized and plotted as line graphs. p-values were determined through two tails student t-tests (*=p<0.5, **=p<0.01, ***=p<0.001).

[1] = test system: PBNK cells killing activity towards MDA-MB-231; test: Cr51 release assay, PBNK killing of MDA-MB-231; type: cell-based; conditions: 1 uM overnight
Protocol: (§4) PBNK cells were incubated with 1 uM NC5 or Compound III overnight, then cells were harvested for Cr51 release assay to check cell cytotoxicity. […] The star symbol indicates the significance of vehicle control vs. NC5 of the indicated E:T ratios. *p<0.05, **p<0.01, n=3.

4T1 breast tumor = test: 4T1-Luc orthotopic syngeneic breast tumor model; type: in vivo, Balb/c mice; conditions: 5.0 μg/g oral gavage
From the text: Syngeneic orthotopic 4T1 breast tumor-bearing mouse model was established by inoculating 5×10^4 4T1-Luc cells mixed with Matrigel were into the left inguinal fat pad of Balb/c mice from Jackson Laboratories. This orthotopic syngeneic breast tumor model is a tool for preclinical testing of anti-cancer drugs or immunotherapy that require an intact immune system to elicit activity.
(§5) To test the effects of the disclosed compounds on the xenograft mouse models, the HCC-Sk-Hep1 cell line xenograft model in NSG mice and 4T1-Luc orthotopic syngeneic breast tumor model in Balb/c mice was used. After confirming the palpable tumor in NSG or Balb/c mice. […] Compound III is referred to as “NC5-140-1” and Compound I is referred to as “NC5-140-2” in FIGS. 11A-11C.

[2] = test system: pCrkL (T207) in Sk-Hep1 cells; test: Flow cytometry of H2O2-induced pCrkL, Sk-Hep1; type: cell-based; conditions: 50 uM H2O2 1 hour, then 10 uM compound 24 hours
Protocol: In this example, Sk-Hep1 cells were pretreated with 50 uM H2O2 for 1 hour to induce activation of pCrkL and were then incubated with 10 uM NC5 or Compound III for 24 hours. pCrkL (T207) expression was determined by flow cytometry.

MDA-MB-231 cells = test: XTT cell viability, MDA-MB-231; type: cell-based; conditions: 24 and 48 hours
Protocol: as §1, §2

HepG2 cell line = test: CCK-8 cell viability, HepG2; type: cell-based; conditions: 1 uM, 5 uM, 10 uM; 48 hours
Protocol: as §3

[3] = test system: PBNK cells killing activity towards SK-Hep1; test: Cr51 release assay, PBNK killing of SK-Hep1; type: cell-based; conditions: 1 uM overnight
Protocol: as §4

Thermodynamic solubility = type: physicochemical; conditions: thermodynamic from solid
Protocol: In this example, solubility measurement assays were performed using a phosphate buffer (also referred to as “PB”) system and a water system to evaluate thermodynamic solubility. The PB system was at a pH of 7.4 to mimic in vivo environments. For the PB system, the values were determined to be NC5: Thermodynamic Solubility pH=7.4<0.42 μg/mL; Compound III: Thermodynamic Solubility pH=7.4<0.48 μg/mL; and Compound I: Thermodynamic Solubility pH=7.4<0.48 μg/mL. Results for the water assay were as follows: NC5: Thermodynamic Solubility Water<0.42 μg/mL; Compound III: Thermodynamic Solubility Water<0.48 μg/mL; and Compound I: Thermodynamic Solubility Water<0.48 μg/mL.

SKHep1 cell line = test: CCK-8 cell viability, SKHep1; type: cell-based; conditions: 1 uM, 5 uM, 10 uM; 48 hours
Protocol: as §3

MDA468 cell line = test: CCK-8 cell viability, MDA468; type: cell-based; conditions: 1 uM, 5 uM, 10 uM; 48 hours
Protocol: as §3

Sk-Hep1 cells = test: Growth inhibition of Sk-Hep1 cells (cell culture images); type: cell-based; conditions: 5 μM, 24 hours
Sk-Hep1 tumor = test: HCC Sk-Hep1 xenograft model; type: in vivo, NSG mice; conditions: four-group study, 5.0 μg/g oral gavage
From the text: To further test whether the tumor growth inhibition effect of NC5 applied to other solid tumors, the HCC-Sk-Hep1cell line and PDAC-BXPC3 cell line xenograft models were used. Subcutaneous injection of 1.5×10^6 SK-Hep1 or BXPC3 cells in NSG mice, Six-ten days after tumor cell injection, the palpable tumor in NSG mice was confirmed.
as §5

CC(C)=CCc1c2c(c3occ(-c4ccc5c(c4)OS(=O)(=O)O5)c(=O)c3c1O)C=CC(C)(C)O2 [Compound III]
cell viability (CCK-8) (AML cell line (MoLM-13)): decrease cell viability significantly | toxic effect compared with NC5 (XTT viability) (BXPC3 cells): better toxic effect than NC5 | cell viability (CCK-8) (Huh7 cell line): decreased cell viability significantly | PBNK cells killing activity (Cr51 release) [1]: increased PBNK cells killing activity | tumor growth (4T1 breast tumor): steady growth inhibition | median survival (4T1 breast tumor; vehicle 25 days): 39.5 days | H2O2 induced pCrkL protein levels [2]: inhibited H2O2 induced pCrkL protein levels | toxic effect compared with NC5 (XTT viability) (MDA-MB-231 cells): comparable toxic effect as NC5 | cell viability (CCK-8) (HepG2 cell line): decreased cell viability significantly | PBNK cells killing activity (Cr51 release) [3]: increased PBNK cells killing activity | solubility thermodynamic (Thermodynamic solubility; aqueous buffer, phosphate buffer (PB) system, pH 7.4, read-out: Thermodynamic Solubility pH=7.4): < 0.48 µg/mL | solubility thermodynamic (Thermodynamic solubility; water system, read-out: Thermodynamic Solubility Water): < 0.48 µg/mL | cell viability (CCK-8) (SKHep1 cell line): decreased cell viability significantly | cell viability (CCK-8) (MDA468 cell line): decreased cell viability significantly | toxic effect compared with NC5 (growth inhibition) (Sk-Hep1 cells): better toxic effect than NC5 | tumor growth (Sk-Hep1 tumor): inhibit tumor growth | median survival (Sk-Hep1 tumor; vehicle 26 days): 34.5 days
